Measured values reported in article PMC8959600 (eLife, 2022).

Key:
[1] = tested on: clinical isolates of Shigella; test: MIC by micro dilution, clinical Shigella isolates from Vietnam and Kenya; type: cell-based, Shigella spp.; settings: all clinical isolates of Shigella (82 Vietnam, 53 Kenya)
Excerpt: Selected compounds, including Tebipenem, were profiled against a panel of […] clinical isolates of enteric pathogens comprised of Shigella (Vietnam and Kenya; n = 135), non-typhoidal Salmonella (Vietnam; n = 117), Campylobacter (Vietnam; n = 75), and various pathogenic E. coli species (Vietnam; n = 7) ([Butcher et al., 2014]). The antimicrobial susceptibility profile of these organisms is described in Supplementary file 1.
Compound screening and dose response assays have been described previously ([Van Voorhis et al., 2016]; [Wiegand et al., 2008]). Briefly, the selected bacteria were cultured on the Luria-Bertani agar overnight at 37 °C (Campylobacter isolates were grown in 2.5% Laked Horse Blood cation-adjusted Mueller Hinton medium (CAMHB, Sigma Aldrich) and incubated in microaerophilic conditions (10% CO2, 5% O2 and 85% N2) at 42 °C); colonies were added to sterile PBS to form 0.5 McFarland solutions. […] The activity of the chemical was recorded as being active (yes) or non-active (no) for each of the tested chemicals. A non-active result was recorded when there was no evidence of bacterial inhibition, and the culture area was indistinguishable from the negative control.
MICs were evaluated using the micro dilution assay in Müller Hinton broth using 1 mM chemical stock solutions, and a final concentration of 5 × 10^5 CFU/mL bacteria. […]

[2] = Intestinal distribution by MALDI imaging in mice; type: in vivo; settings: 60 min after oral pro-drug
Procedure: One animal was euthanised at 0.25, 0.5, 1, and 4 hr respectively and 2.5–3 cm sections of the intestine (duodenum, jejunum, ileum, caecum, and colon) were collected and frozen at –80 °C. For quantitative LCMS analysis of intestine homogenate, samples were thawed at ambient temperature, mixed with water (1:1) and homogenised by turrax (10 sec). Subsequently, 20 µL of homogenate were mixed with 200 µl of ACN: MeOH (80:20) and filtered using 0.2 µm filter plate (Whatman). LCMS analysis was performed as described in previous section. For MALDI imaging, 50 mm of the central part of each intestinal section were cut and mounted in a sample disc on dry ice with a solution of 1% methylcellulose (Sigma Aldrich, UK). Next, tissue sections of 12 µm (sagital sections) were obtained using a cryostat (Leica CM3600; Leica Microsystems Inc, Wetzlar, Germany) at –20 °C and collected in conductive-coated slides for MALDI Imaging (Bruker Daltonic). After the ‘MALDI’ section was obtained a consecutive section for histology was taken. Prior to matrix coating, samples for MALDI were optical scanned in a PathScanner. The matrix deposition was conducted in a sprayer ImagePrep System (Bruker Daltonic) which uses vibrational vaporisation technology. As matrix solution α-CHCA (α-Cyano-4-hydroxycinnamic acid (Sigma Aldrich) dissolved in 70:30 methanol/water (v/v) containing 0.2% TFA at 7 mg/mL was used. MALDI MSI data were obtained using a Bruker UltrafleXtream MALDI TOF/TOF (Bruker Daltonic, Germany)).
Both compounds were analysed in positive mode using a LIFT method. For Tebipenem, parent compound was 384.32 and the detection mass window between m/z 0–400. 298.164 were the most intensive fragment. […] We used a laser shut at 85% power with a 50 μm step size, 100 times at raster spot in random wak mode. FlexImaging 4.1(bruker Daltoninc, Germany) were used for the data visualisation. […]
MALDI Imaging is not a quantitative technique, therefore, the colour scale of images is relative to the maximum intensity (100 corresponds with the maximal signa in each slide). […]

S. sonnei 02–1181 = test: Solid medium test at 10 µM and dose-response MIC against MDR clinical isolate; type: cell-based, Shigella sonnei
Procedure: (§1) The confirmed hit list was narrowed by applying the following filters: a 30% cut-off value, absence of undesirable structural features (e.g. electrophiles, peroxides, and Michael acceptors) and reduced physicochemical risk (maximum five aromatic rings and PFI <8)([Leeson and Young, 2015]). […] Briefly, the selected bacteria were cultured on the Luria-Bertani agar overnight at 37 °C (Campylobacter isolates were grown in 2.5% Laked Horse Blood cation-adjusted Mueller Hinton medium (CAMHB, Sigma Aldrich) and incubated in microaerophilic conditions (10% CO2, 5% O2 and 85% N2) at 42 °C); colonies were added to sterile PBS to form 0.5 McFarland solutions. All chemical testing was performed at an initial concentration of 10 μM. Bacterial suspensions were evenly spread on Mueller-Hinton agar by sterile cotton swabs (Medical Wire – MWE). […] Plates were incubated overnight at 37 °C. The activity of the chemical was recorded as being active (yes) or non-active (no) for each of the tested chemicals.
(§2) MICs were evaluated using the micro dilution assay in Müller Hinton broth using 1 mM chemical stock solutions, and a final concentration of 5 × 10^5 CFU/mL bacteria. Twofold serial dilutions were prepared in 96-well plates at concentration ranging from 1 μM to 7.8 nM. 100 μL bacteria were added and incubated at 37 °C overnight; 10 μl of each solution was dropped onto Luria-Bertani agar and incubated overnight at 37 °C for the detection of bacterial growth. Results were interpreted as minimal concentration necessary to inhibit growth.

S. flexneri EG478 = test: as above; type: cell-based, Shigella flexneri
Procedure: as §1, §2

Structure (SMILES): C[C@@H](O)[C@H]1C(=O)N2C(C(=O)O)=C(SC3CN(C4=NCCS4)C3)[C@H](C)[C@H]12 [Tebipenem]
- MIC values, range [1]: 0.04 to 0.3 µM
- MALDI detection in the intestinal lumen [2]: could be detected in the lumen and enterocytes throughout the gut
- bactericidal activity (S. sonnei 02–1181): greatest bactericidal activity
- bactericidal activity (S. flexneri EG478; MDR clinical isolate S. flexneri EG478): greatest bactericidal activity
- MIC range (S. flexneri EG478; range over S. flexneri EG478 and S. sonnei 02-1181): 0.08 to 0.15 µg/mL
